The values that follow come from patent US12037346B2, “Amino-substituted heteroaryls for treating cancers with EGFR mutations” (Nuvalent, Inc., priority 2021, dated 2024).

By IC50 is commonly meant the concentration that inhibits the measured activity by half.

For experiment [1], the system named is A431 cells (amplification of the wild-type EGFR gene), phospho-ERK Thr202/Tyr204. Kind of experiment: Cellular phosphorylation assay, pERK (phospho-ERK Thr202/Tyr204 AlphaLISA) in A431. The class given is cell-based. Particulars: Homo sapiens, A-431, compound incubated for 5 hours. The gist of the method:
(§1)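 Cells (12,500/well) plated 1 day, then exposed to 3-fold compound dilutions for 5 h; for pEGFR only, A431 stimulated with EGF 30 ng/mL for 15 min. Lysates read by AlphaLISA for pHER2 Tyr1221/1222, pEGFR Tyr1068 or pERK Thr202/Tyr204; IC50 from percent inhibition by four-parameter logistic fit.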
For orientation: Bead proximity is the source of the signal in Alpha formats.

Experiment [2] addresses T1, wild-type EGFR (A431 cells) (Homo sapiens, UniProt P00533).
T1 construct: A431 bears amplification of the wild-type EGFR gene; endogenous in cells; host or cells: A431
The experiment is described as follows: Cellular phosphorylation assay, pEGFR (phospho-EGFR Tyr1068 AlphaLISA) in A431. The class given is cell-based. Conditions: compound incubated for 5 hours, EGF (30 ng/mL) for 15 minutes. The procedure, abridged:
as §1

The target of experiment [3] is T2, HER2-A775_G776insV-G776C (NCI-H1781 cells) (Homo sapiens, UniProt P04626, G776C/INS775V).
T2 construct: NCI-H1781 is a HER2 exon20 insertion cell line bearing HER2-A775_G776insV-G776C; endogenous in cells; host or cells: NCI-H1781
T2 sequence (P04626 with tags, fused parts or gaps INS775V/G776C): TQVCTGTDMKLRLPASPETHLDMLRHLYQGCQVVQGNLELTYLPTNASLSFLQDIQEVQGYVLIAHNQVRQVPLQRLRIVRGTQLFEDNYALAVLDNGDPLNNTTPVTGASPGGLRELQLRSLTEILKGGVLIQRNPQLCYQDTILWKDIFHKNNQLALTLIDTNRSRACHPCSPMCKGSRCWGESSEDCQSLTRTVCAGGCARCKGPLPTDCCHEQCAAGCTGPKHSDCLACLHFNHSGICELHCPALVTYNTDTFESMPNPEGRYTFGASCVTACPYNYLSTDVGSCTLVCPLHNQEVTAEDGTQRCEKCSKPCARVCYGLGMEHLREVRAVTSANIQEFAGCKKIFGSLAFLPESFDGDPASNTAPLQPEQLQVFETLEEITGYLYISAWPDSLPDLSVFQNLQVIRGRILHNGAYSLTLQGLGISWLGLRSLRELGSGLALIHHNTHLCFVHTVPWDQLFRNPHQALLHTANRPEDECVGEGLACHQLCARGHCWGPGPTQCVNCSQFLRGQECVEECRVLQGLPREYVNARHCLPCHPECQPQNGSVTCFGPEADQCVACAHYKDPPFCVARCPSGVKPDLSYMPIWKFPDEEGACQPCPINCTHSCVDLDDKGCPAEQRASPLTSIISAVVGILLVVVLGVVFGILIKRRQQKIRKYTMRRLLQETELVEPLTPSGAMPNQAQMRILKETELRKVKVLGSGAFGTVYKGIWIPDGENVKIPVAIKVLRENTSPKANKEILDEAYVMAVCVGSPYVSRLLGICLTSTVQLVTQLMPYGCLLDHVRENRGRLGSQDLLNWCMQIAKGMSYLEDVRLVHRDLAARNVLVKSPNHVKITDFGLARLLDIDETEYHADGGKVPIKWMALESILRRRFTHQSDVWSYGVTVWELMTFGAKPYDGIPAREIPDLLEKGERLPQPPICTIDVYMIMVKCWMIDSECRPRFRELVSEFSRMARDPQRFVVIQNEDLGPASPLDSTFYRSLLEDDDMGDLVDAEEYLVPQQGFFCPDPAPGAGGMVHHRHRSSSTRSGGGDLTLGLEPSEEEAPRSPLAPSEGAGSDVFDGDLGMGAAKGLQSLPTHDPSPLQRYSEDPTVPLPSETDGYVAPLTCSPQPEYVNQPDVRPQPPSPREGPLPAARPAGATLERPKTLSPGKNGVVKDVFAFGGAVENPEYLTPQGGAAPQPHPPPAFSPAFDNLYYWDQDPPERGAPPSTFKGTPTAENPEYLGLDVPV
Kind of experiment: Cellular phosphorylation assay, pHER2 (phospho-ErbB2 Tyr1221/1222 AlphaLISA) in NCI-H1781. The class given is cell-based. Conditions: compound incubated for 5 hours. On the procedure: (§2) Besides Ba/F3s, two commercially available cell lines were also used. NCI-H1781 is a HER2 exon20 insertion cell line bearing HER2-A775_G776insV-G776C. A431 bears amplification of the wild-type EGFR gene.
Ba/F3 cells were plated at 50,000 cells/well (40 μL), or NCI-H1781 cells or A431 cells were plated at 12,500 cells/well (40 μL), in a 384-well plate for 1 day. Test compounds (40 nL) were then added in a 3-fold dilution series using the TECAN EV0200 liquid handler and incubated for 5 hours. Only for pEGFR analysis in A431, the cells were briefly stimulated with EGF (30 ng/mL) for 15 minutes. Media were removed using Apricot Designs. Phosphoproteins were analyzed using the phospho-EGFR Tyr1068 AlphaLISA kit (“pEGFR”; PerkinElmer #ALSU-PEGFR-B10K;) phospho-ERK Thr202/Tyr204 AlphaLISA kit (“pERK”; PerkinElmer #ALSU-PERK-A10K) or the phospho-ErbB2 Tyr1221/1222 AlphaLISA kit (“pHER2”; PerkinElmer #ALSU-PEB2-A10K;) according to the manufacturer's instructions. Briefly, cells were lysed with lysis buffer (10 μL) containing protease-inhibitor and phosphatase-inhibitor cocktails. The lysates were transferred into a new optical plate, incubated with the acceptor mix (5 μL) for 1.5-2 hours at room temperature in darkness, and then mixed with the donor mix (5 μL) overnight in darkness. Fluorescence was measured on a plate reader using the appropriate AlphaLISA settings. Half-maximal inhibitory concentration (IC50) was calculated from percent inhibition and inhibitor concentration using four-parameter logistic regression.
HER2 is phosphorylated when activated. Therefore, phospho-HER2 indicates HER2 activity in the cells.

Experiment [4] has as its target Ba/F3 HER2-YVMA cells (HER2-A775_G776insYVMA) (Homo sapiens, UniProt P04626, DUP772-775, cells depend on it). Kind of experiment: Cell proliferation assay (CellTiter-Glo), Ba/F3 HER2-YVMA. The class given is cell-based. Particulars: read-out: Ba/F3 HER2-YVMA cell proliferation IC50. The procedure, abridged: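 Ba/F3 cells stably expressing HER2-YVMA (IL-3-independent, puromycin-selected monoclones) seeded 1,000 cells/well, 1 day before 3-fold compound dilutions; incubated 48 h, 72 h, or 48 h then fresh compound and further 72 h. Viability by CellTiter-Glo luminescence; IC50 from percent inhibition by four-parameter logistic fit, first inflexion only where applicable.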
A general note: Cellular ATP, detected with luciferase, serves as a proxy for viable cell number.

For experiment [5], the system named is NCI-H1781 cells (HER2-A775_G776insV-G776C). Kind of experiment: Cell proliferation assay (CellTiter-Glo), NCI-H1781. The class given is cell-based. Conditions: first inflexion of biphasic curve. The method, then:
as §2
Ba/F3 cells were plated at 1,000 cells/well (40 μL), or NCI-H1781 or A431 cells were plated at 2,000 cells/well (40 μL), in a 384-well plate for 1 day. Test compounds (40 nL) were then added in a 3-fold dilution series using the TECAN EV0200 liquid handler and incubated for 48 hours (“2 days”), 72 hours (“3 days”), or 48 hours followed by renewal of compound solutions and further incubation for 72 hours (“2 days/3 days”). The 72-hour assay was necessary for NCI-H1781 cells, which are slow-growing, and the resupply of fresh compounds on day 3 obviated the potential confounding effects arising from compound degradation in cell media over 72 hours. Plates were equilibrated at room temperature for 15 minutes followed by addition of 40 μL CellTiter-Glo reagent (Promega). Luminescence was measured on a plate reader. Half-maximal inhibitory concentration (IC50) was calculated from percent inhibition and inhibitor concentration using four-parameter logistic regression. […] In these cases, the regression curve was drawn only for the first inflexion to accurately measure on-target growth inhibitory effect.
Ba/F3, NCI-H1781, and A431 proliferation is driven by the oncogenes in the same way that cancer cell proliferation in humans is driven by the expression of equivalent oncogenes.

Experiment [6] concerns the target HER2 (Homo sapiens, UniProt P04626). Conditions: cited from earlier work.

T1 sequence (P00533 25-1210): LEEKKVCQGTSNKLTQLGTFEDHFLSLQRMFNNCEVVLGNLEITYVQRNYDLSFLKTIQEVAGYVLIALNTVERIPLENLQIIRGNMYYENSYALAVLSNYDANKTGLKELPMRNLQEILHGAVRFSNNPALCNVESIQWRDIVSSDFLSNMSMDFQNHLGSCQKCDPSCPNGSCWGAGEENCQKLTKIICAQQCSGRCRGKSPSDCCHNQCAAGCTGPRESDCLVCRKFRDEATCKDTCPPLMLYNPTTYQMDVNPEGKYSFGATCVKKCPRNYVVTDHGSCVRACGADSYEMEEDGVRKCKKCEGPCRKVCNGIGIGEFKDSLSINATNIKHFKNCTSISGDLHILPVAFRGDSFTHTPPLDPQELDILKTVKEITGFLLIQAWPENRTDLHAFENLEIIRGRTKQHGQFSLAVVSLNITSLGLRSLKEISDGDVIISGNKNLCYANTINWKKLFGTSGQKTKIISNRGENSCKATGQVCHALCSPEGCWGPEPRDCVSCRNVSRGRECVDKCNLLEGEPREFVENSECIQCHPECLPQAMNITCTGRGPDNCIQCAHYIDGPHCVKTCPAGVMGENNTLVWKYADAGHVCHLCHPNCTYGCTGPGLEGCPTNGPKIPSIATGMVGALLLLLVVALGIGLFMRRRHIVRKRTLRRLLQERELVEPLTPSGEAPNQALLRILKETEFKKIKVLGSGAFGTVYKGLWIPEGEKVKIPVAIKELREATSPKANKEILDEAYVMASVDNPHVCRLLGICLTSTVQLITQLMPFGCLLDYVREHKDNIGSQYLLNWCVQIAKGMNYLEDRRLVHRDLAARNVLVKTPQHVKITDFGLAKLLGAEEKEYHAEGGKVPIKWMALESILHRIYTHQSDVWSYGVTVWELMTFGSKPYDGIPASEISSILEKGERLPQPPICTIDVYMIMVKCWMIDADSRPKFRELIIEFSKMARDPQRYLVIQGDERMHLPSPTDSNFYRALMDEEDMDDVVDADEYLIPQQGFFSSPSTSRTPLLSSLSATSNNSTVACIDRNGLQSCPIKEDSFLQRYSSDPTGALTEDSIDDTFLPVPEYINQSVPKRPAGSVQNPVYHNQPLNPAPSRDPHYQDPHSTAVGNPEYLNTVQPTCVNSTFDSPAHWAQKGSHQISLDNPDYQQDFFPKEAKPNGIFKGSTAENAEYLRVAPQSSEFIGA
HER2, sequence (P04626 23-1255): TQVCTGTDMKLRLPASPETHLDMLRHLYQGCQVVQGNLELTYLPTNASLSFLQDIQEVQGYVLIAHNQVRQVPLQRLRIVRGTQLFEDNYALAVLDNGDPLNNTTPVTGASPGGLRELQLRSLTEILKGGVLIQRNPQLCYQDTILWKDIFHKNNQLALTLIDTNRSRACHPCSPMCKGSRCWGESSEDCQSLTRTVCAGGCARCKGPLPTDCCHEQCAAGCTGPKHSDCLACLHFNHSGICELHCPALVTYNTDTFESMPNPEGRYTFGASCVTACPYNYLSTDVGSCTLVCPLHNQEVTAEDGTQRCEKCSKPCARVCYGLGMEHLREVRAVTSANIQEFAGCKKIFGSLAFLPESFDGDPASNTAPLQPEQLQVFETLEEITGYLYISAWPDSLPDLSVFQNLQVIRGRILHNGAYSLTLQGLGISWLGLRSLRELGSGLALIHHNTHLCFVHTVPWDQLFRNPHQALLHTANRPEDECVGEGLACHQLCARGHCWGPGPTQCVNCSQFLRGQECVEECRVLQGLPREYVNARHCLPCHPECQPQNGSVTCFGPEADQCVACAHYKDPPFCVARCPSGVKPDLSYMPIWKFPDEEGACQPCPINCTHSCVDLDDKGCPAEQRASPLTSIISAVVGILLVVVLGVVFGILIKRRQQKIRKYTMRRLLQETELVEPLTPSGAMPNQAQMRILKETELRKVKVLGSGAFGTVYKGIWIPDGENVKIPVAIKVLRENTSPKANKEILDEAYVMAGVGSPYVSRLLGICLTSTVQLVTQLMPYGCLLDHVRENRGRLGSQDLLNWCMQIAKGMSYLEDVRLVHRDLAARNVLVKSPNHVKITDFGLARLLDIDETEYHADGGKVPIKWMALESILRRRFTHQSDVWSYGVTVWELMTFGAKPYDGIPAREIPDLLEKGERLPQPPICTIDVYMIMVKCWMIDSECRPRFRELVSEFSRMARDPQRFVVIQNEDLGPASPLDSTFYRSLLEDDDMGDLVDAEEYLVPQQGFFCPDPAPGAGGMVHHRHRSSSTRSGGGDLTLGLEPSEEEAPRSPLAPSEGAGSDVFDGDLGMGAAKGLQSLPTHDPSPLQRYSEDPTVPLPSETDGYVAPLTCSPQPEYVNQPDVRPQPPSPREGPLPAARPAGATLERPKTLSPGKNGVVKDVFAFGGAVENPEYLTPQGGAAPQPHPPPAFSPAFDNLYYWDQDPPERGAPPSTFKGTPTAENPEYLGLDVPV
Ba/F3 HER2-YVMA cells (HER2-A775_G776insYVMA), sequence (P04626 with tags, fused parts or gaps DUP772-775): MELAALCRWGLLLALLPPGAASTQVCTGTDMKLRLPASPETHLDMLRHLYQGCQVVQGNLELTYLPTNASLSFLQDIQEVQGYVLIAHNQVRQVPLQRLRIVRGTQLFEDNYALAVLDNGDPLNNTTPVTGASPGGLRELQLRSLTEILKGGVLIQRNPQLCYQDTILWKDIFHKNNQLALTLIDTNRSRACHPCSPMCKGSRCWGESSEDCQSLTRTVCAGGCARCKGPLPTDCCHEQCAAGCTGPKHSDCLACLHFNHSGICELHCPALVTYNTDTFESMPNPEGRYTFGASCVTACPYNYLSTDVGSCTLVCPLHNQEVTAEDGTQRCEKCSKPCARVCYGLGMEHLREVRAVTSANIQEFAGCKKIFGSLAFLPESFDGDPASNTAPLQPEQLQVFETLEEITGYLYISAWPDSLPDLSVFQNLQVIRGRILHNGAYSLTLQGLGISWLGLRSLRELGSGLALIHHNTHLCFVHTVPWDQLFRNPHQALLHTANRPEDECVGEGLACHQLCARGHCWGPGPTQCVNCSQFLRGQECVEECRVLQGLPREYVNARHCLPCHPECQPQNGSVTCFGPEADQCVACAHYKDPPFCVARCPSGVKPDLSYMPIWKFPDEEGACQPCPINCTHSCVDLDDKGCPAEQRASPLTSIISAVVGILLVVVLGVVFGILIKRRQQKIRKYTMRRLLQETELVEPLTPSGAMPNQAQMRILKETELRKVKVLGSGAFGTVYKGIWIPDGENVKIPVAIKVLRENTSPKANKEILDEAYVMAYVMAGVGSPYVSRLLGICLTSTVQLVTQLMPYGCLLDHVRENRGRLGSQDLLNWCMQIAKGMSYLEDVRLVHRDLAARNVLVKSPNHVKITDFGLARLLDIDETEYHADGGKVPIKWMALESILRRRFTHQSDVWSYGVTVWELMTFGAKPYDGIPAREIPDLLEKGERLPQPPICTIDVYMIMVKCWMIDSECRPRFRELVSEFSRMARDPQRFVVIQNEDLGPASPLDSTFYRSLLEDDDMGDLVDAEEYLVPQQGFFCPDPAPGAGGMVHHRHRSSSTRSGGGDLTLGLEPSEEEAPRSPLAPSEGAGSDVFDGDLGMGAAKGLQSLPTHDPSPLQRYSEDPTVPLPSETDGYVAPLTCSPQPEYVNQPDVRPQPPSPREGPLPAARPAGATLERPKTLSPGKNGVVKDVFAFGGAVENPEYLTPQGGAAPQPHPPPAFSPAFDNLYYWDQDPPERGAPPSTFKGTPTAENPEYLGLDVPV

For the compound `C=CC(=O)N1CCC=C(c2ccc3ncnc(Nc4ccc(Oc5ccn6ncnc6c5)c(C)c4)c3n2)CC1` [Example 1, 1-(4-[4-[(3-methyl-4-[[1,2,4]triazolo[1,5-a]pyridin-7-yloxy]phenyl)amino]pyrido[3,2-d]pyrimidin-6-yl]-2,3,6,7-tetrahydroazepin-1-yl)prop-2-en-1-one], the IC50 in experiment [1] is 100 to 500 nM; in experiment [2], 100 to 500 nM; in experiment [3], below 100 nM; in experiment [5] it was below 100 nM. The GI50 in experiment [4] was below 100 nM.

For the compound `CC#CC(=O)N1CC=C(c2ccc3ncnc(Nc4ccc(Oc5ccn6ncnc6c5)c(C)c4)c3n2)CC1` [Example 2, 1-(4-(4-((4-([1,2,4]triazolo[1,5-a]pyridin-7-yloxy)-3-methylphenyl)amino)pyrido[3,2-d]pyrimidin-6-yl)-3,6-dihydropyridin-1(2H)-yl)but-2-yn-1-one], the IC50 in experiment [1] is 500 to 1000 nM; in experiment [2], 500 to 1000 nM; in experiment [3] it was below 100 nM; in experiment [5], below 100 nM. Also, the GI50 in experiment [4] was below 100 nM.

`C=CC(=O)N1CC=C(c2ccc3ncnc(Nc4ccc(Oc5ccn6ncnc6c5)c(C)c4F)c3n2)CC1` [Example 5]: the IC50 in experiment [1] is at least 1000 nM; in experiment [2], at least 1000 nM; in experiment [3], below 100 nM; in experiment [5] it was 100 to 500 nM. Also, the GI50 in experiment [4] is below 100 nM.

`C=CC(=O)N1CCN(c2ccc3ncnc(Nc4ccc(Oc5ccn6ncnc6c5)c(C)c4)c3n2)CC1` [Example 9]: the IC50 is 500 to 1000 nM in experiment [1], 100 to 500 nM in experiment [2], below 100 nM in experiment [3] and below 100 nM in experiment [5]. Also, the GI50 in experiment [4] is below 100 nM.

As to `C=CC(=O)N1CC=C(c2ccc3ncnc(Nc4ccc(Oc5ccn6ncnc6c5)c(C)c4)c3n2)CC1` [Example 12], the IC50 was 500 to 1000 nM in experiment [1], 500 to 1000 nM in experiment [2], below 100 nM in experiment [3] and below 100 nM in experiment [5]. In addition, the GI50 in experiment [4] was below 100 nM.

Turning to `Cc1cc(Nc2ncnc3ccc(C4=CCN(C(=O)/C=C/CN(C)C)CC4)nc23)ccc1Oc1ccn2ncnc2c1` [Example 13], the IC50 was at least 1000 nM in experiment [1], 100 to 500 nM in experiment [2], below 100 nM in experiment [3] and below 100 nM in experiment [5]. For the same compound, the GI50 in experiment [4] was below 100 nM.

For `C=CC(=O)N1CC=C(c2ncc3ncnc(Nc4ccc(Oc5ccn6ncnc6c5)c(C)c4)c3n2)CC1` [Example 18], the IC50 was 500 to 1000 nM in experiment [1], 500 to 1000 nM in experiment [2], below 100 nM in experiment [3] and below 100 nM in experiment [5]. Moreover, in experiment [4], the GI50 is below 100 nM.

For the compound `C=CC(=O)N1CC=C(c2ccc3ncnc(Nc4ccc(Oc5ccn6ncnc6c5)c(C)c4)c3n2)C1` [Example 21], the IC50 in experiment [1] was at least 1000 nM; in experiment [2] it was at least 1000 nM; in experiment [3], below 100 nM; in experiment [5] it was 100 to 500 nM. For the same compound, the GI50 in experiment [4] was 100 to 500 nM.

For `C=CC(=O)N1CCN(c2ncc3ncnc(Nc4ccc(Oc5ccn6ncnc6c5)c(C)c4F)c3n2)C[C@@H]1C` [Example 49], the IC50 in experiment [1] was at least 1000 nM; in experiment [2], at least 1000 nM; in experiment [3], below 100 nM; in experiment [5] it was below 100 nM. Moreover, the GI50 in experiment [4] was below 100 nM.

Consider `C=CC(=O)N1CCN(c2ncc3ncnc(Nc4cc(C)c(Oc5ccn6ncnc6c5)cc4F)c3n2)C[C@H]1C` [Example 50], for which the IC50 in experiment [2] was at least 1000 nM; in experiment [3] it was below 100 nM; in experiment [5] it was 100 to 500 nM.

Take `C=CC(=O)N1CCN(c2ncc3ncnc(Nc4ccc(Oc5ccn6ncnc6c5)c(C)c4F)c3c2F)C[C@H]1C` [Example 52]: the IC50 in experiment [1] was at least 1000 nM; in experiment [2] it was at least 1000 nM; in experiment [3], below 100 nM; in experiment [5], below 100 nM. The GI50 in experiment [4] is below 100 nM.

Turning to `C=CC(=O)N1CCN(c2ccc3ncnc(Nc4ccc(Oc5ccn6ncnc6c5)c(C)c4F)c3c2F)C[C@H]1C` [Example 53], the IC50 in experiment [1] was at least 1000 nM; in experiment [2] it was at least 1000 nM; in experiment [3], below 100 nM; in experiment [5], below 100 nM. For the same compound, the GI50 in experiment [4] is below 100 nM.

As for `C=CC(=O)N1CCC(c2ncc3ncnc(Nc4ccc(Oc5ccn6ncnc6c5)c(C)c4F)c3n2)=C[C@@H]1C` [Example 54], the 50% inhibitory concentration (IC50) in experiment [1] is 100 to 500 nM; in experiment [2], 500 to 1000 nM; in experiment [3], below 100 nM; in experiment [5], below 100 nM. Further, the GI50 in experiment [4] is below 100 nM.

As for `C=CC(=O)N1CCC(c2ncc3ncnc(Nc4ccc(Oc5ccn6ncnc6c5)c(C)c4F)c3n2)=C[C@H]1C` [Example 55], the IC50 is 100 to 500 nM in experiment [1], at least 1000 nM in experiment [2] and below 100 nM in experiment [3]. For the same compound, the GI50 in experiment [4] was below 100 nM.

`C=CC(=O)N1CCC(c2ncc3ncnc(Nc4ccc(Oc5ccn6ncnc6c5)c(C(F)F)c4F)c3n2)=C[C@@H]1C` [Example 60]: the values for the IC50 in experiment [1], in experiment [2] and in experiment [3] were at least 1000 nM, 500 to 1000 nM and below 100 nM, respectively. In addition, the GI50 in experiment [4] was below 100 nM.

In the case of `C=CC(=O)N1CCC(c2ncc3ncnc(Nc4ccc(Oc5ccn6ncnc6c5)c(C(F)(F)F)c4F)c3n2)=C[C@@H]1C` [Example 62], the IC50 in experiment [1] is at least 1000 nM; in experiment [2], at least 1000 nM; in experiment [3], below 100 nM. In experiment [4], the GI50 was below 100 nM.

As for `C=CC(=O)N1CCN(c2ncc3ncnc(Nc4ncc(Oc5ccn6ncnc6c5)c(C)c4F)c3n2)C[C@H]1C` [Example 63], the IC50 is at least 1000 nM in experiment [1], at least 1000 nM in experiment [2] and 100 to 500 nM in experiment [3]. In experiment [4], the GI50 is 500 to 1000 nM.

In the case of `C=CC(=O)N1CCN(c2ccc3ncnc(Nc4ncc(Oc5ccn6ncnc6c5)c(C)c4F)c3c2F)C[C@H]1C` [Example 64], the IC50 in experiment [1] is at least 1000 nM; in experiment [2], at least 1000 nM; in experiment [3], below 100 nM. Moreover, the GI50 in experiment [4] fell in the range of 100 to 500 nM.

Consider `Cc1cc(Nc2ncnc3ccc(NC4=NC(C)(C)CO4)cc23)ccc1Oc1ccn2ncnc2c1` [Tucatinib], for which the “median progression free survival” value in experiment [6] (compared to placebo (5.6 months)) is 7.8 months. Moreover, the median overall survival in experiment [6] (compared to placebo (17.4 months)) is 21.9 months. Further, in experiment [6] (compared to placebo (23%)), the objective response rate is 41%.
